Results from ChEMBL document CHEMBL2021893, “Synthesis, structure-activity relationship and in vitro anti-mycobacterial evaluation of 13-n-octylberberine derivatives” (2012).
Converted amounts (≈) assume the structure as drawn.

Columns and labels:
Assay type in all cases: functional
[1] = test system: Mycobacterium tuberculosis; assay: Antimycobacterial activity against multidrug-resistant Mycobacterium tuberculosis isolate 926 from Chinese tuberculosis patient measured 24 hrs post dose by microplate alamar blue assay; settings: isolate 926, 24 h
[2] = test system: Mycobacterium tuberculosis; assay: Antimycobacterial activity against multidrug-resistant Mycobacterium tuberculosis isolate 83 from Chinese tuberculosis patient measured 24 hrs post dose by microplate alamar blue assay; settings: isolate 83, 24 h
[3] = test system: Mycobacterium tuberculosis; assay: Antimycobacterial activity against multidrug-resistant Mycobacterium tuberculosis isolate 431 from Chinese tuberculosis patient measured 24 hrs post dose by microplate alamar blue assay; settings: isolate 431, 24 h
[4] = test system: Mycobacterium tuberculosis; assay: Antimycobacterial activity against multidrug-resistant Mycobacterium tuberculosis isolate 164 from Chinese tuberculosis patient measured 24 hrs post dose by microplate alamar blue assay; settings: isolate 164, 24 h
[5] = test system: Mycobacterium tuberculosis; assay: Antimycobacterial activity against multidrug-resistant Mycobacterium tuberculosis isolate 44 from Chinese tuberculosis patient measured 24 hrs post dose by microplate alamar blue assay; settings: isolate 44, 24 h

| Structure (SMILES) | MIC [1] [µg/mL] | MIC [2] [µg/mL] | MIC [3] [µg/mL] | MIC [4] [µg/mL] | MIC [5] [µg/mL] |
| --- | --- | --- | --- | --- | --- |
| CO[C@H]1/C=C/O[C@@]2(C)Oc3c(C)c(O)c4c(O)c(c(/C=N/N5CCN(C)CC5)c(O)c4c3C2=O)NC(=O)/C(C)=C\C=C\[C@H](C)[C@H](O)[C@@H](C)[C@@H](O)[C@@H](C)[C@H](OC(C)=O)[C@@H]1C [RIFAMPIN] | > 32 | > 64 | > 64 | > 64 | 64 (≈ 77.8 µM) |
| NNC(=O)c1ccncc1 [ISONIAZID] | 32 (≈ 233 µM) | 4 (≈ 29.2 µM) | 64 (≈ 467 µM) | 4 (≈ 29.2 µM) | 4 (≈ 29.2 µM) |
| CCCCCCCCc1c2[n+](cc3c(OC)c(OC)ccc13)CCc1cc(OCC)c(OCC)cc1-2.[Cl-] | 4 | 4 |  | 4 | 4 |
| CCCCCCCCc1c2[n+](cc3c(OCC)c(OC)ccc13)CCc1cc(OCC)c(OCC)cc1-2.[Cl-] | 0.125 | 0.5 | 0.5 | 0.125 | 0.25 |
| CCCCCCCCc1c2[n+](cc3c(OCc4ccccc4)c(OC)ccc13)CCc1cc(OCc3ccccc3)c(O)cc1-2.[Cl-] | 0.5 | 1 | 0.25 | 1 | 0.5 |
| CCCCCCCCc1c2[n+](cc3c(OC)c(OC)ccc13)CCc1cc3c(cc1-2)OCO3.[Cl-] |  | 4 | 4 | 4 | 4 |
